Converted amounts (≈) assume the structure as drawn.
What was measured:
[1] = Aqueous solubility at pH 7.4
[2] = Aqueous solubility at pH 5.0
[3] = Metabolic stability by incubation with rat liver microsomes treated with Phenobarbital; format: ADME, Microsome
[4] = Chemical stability at pH 1.0; format: physicochemical; conditions: buffer
[5] = Chemical stability at pH 5.0; format: physicochemical; conditions: buffer
[6] = Chemical stability at pH 7.4; format: physicochemical; conditions: buffer
[7] = Chemical stability at pH 9.0; format: physicochemical; conditions: buffer
[8] = Chemical stability in 80% human serum (pH 7.4); format: physicochemical
[9] = Metabolic stability by incubation with rat liver microsomes; format: ADME, Microsome
[10] = Metabolic stability by incubation with rat liver microsomes treated with Dexamethasone; format: ADME, Microsome
[11] = Metabolic stability by incubation with rat liver microsomes treated with 3-methylcholanthrene; format: ADME, Microsome; conditions: 3-methylcholanthrene-treated
[12] = Metabolic stability by incubation with human liver microsomes; format: ADME, Microsome
[13] = Distribution coefficient at pH 5.0, log D; conditions: octanol/water
[14] = Distribution coefficient at pH 7.4, log D; conditions: octanol/water
[15] = Chemical stability at pH 3.0; format: physicochemical; conditions: buffer
[16] = biological target: T1, CYP2B6 (Homo sapiens, UniProt P20813); experiment: Binding constant for compound binding to CYP2B6; format: ADME
T1 sequence (P20813 whole entry): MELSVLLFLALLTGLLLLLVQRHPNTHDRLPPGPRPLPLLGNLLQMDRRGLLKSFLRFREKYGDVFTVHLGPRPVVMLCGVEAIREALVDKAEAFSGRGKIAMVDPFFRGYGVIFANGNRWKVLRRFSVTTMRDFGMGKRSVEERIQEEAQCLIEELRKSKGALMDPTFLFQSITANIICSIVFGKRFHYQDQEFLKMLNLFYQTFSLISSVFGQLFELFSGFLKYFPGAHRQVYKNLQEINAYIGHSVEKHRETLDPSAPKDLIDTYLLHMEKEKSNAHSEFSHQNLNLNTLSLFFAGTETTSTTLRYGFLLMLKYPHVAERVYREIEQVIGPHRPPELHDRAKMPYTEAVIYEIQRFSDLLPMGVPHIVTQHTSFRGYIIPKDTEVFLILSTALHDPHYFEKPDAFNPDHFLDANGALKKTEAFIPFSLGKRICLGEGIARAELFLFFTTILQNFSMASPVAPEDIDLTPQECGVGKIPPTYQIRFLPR

[17] = Half life in rat urine at 37 °C; conditions: in vitro

SMILES: CC(C(=O)O)c1cccc(/C(=N\O)c2ccccc2)c1 (stereo not given)
- solubility ([1]; buffer): 116000 µg/mL (≈ 431000 µM)
- solubility [2]: 1800 µg/mL (≈ 6680 µM)
- half-life [3]: 5040 min
- half-life [4]: 360 min
- T1/2 [5]: Not Active
- T1/2 [6]: Not Active
- T1/2 [7]: Not Active
- half-life [8]: 33.2 days
- half-life [9]: 6.96 days
- half-life [10]: 4320 min
- half-life [11]: 4.17 days
- half-life [12]: 5020 min

SMILES: COc1ccc2cc(CC/C(C)=N/O)ccc2c1
- solubility ([1]; buffer): 2 µg/mL (≈ 8.22 µM)
- solubility [2]: 3 µg/mL (≈ 12.3 µM)
- half-life [3]: 28 min
- logD [13]: 3.6
- logD [14]: 3.6
- half-life [4]: 6 min
- half-life [15]: 11 min
- half-life [5]: 980 min
- half-life [6]: 30 days
- T1/2 [7]: Not Active
- half-life [8]: 24.6 days
- half-life [9]: 0.0403 days
- half-life [10]: 46 min
- half-life [11]: 0.00139 days
- half-life [12]: 51 min
- Km [16]: 70 µM
- half-life [17]: 2.88 days

SMILES: CC(C(=O)O)c1cccc(C(=O)c2ccccc2)c1 (stereo not given) [KETOPROFEN]
- logD [13]: 2.1
- logD [14]: 0.008

SMILES: COc1ccc2cc(CCC(C)=O)ccc2c1 [NABUMETONE]
- solubility ([1]; aqueous): 4.3 µg/mL (≈ 18.8 µM)
- solubility [2]: 6.4 µg/mL (≈ 28 µM)
- logD [13]: 3.2
- logD [14]: 3.3
